# Measurements taken from patent publication EP4527946A1, “METHOD FOR PREDICTING THE RESPONSE TO A DUAL S[…] KINASE TTK INHIBITOR THERAPY” (Pangaea Oncology, S.A, priority 2023, dated 2025).
# What was measured:
# PC9-ER and PC-GR4 clones = assay: Flow cytometry (cell cycle, annexin V/PI) in clones; format: cell-based; conditions: 50 nM
# Procedure: (§1) For cell cycle analyses, cells were plated in T-25 flasks, allowed to attach, treated with drugs in RPMI 1640 + 10% FBS, trypsinised and centrifuged. Cell pellets were resuspended in PBS, fixed in 70% ethanol and incubated o/n at -20 °C. Fixed cells were subsequently re-centrifuged at 400 xg for 5 min at 4 °C; resuspended in 250 µL of PBS with 50 µg/mL RNAse A (Sigma Aldrich, Saint Louis, MO), incubated for 1 h at 37 °C and stained with propidium iodide (PI) (Roche Diagnostics, Basel, Switzerland) for 30 min at room temperature.
# (§2) For cell death analyses, the Annexin-V-FLUOS (An) staining kit (Roche Diagnostics) was employed, according to the manufacturer's instructions. Stained cells were sorted with a FACSCanto II cytometer (BD Biosciences, Franklin Lakes, NJ) using the FACSDiva software version 6.1.2. The combination of Annexin V and PI was used to differentiate four cell populations; viable cells (An -/PI-), early apoptotic (An+/PI-), necrotic (An-/PI+) and later apoptotic/necrotic (An+/PI+).
# PC9-ER = assay: cells; conditions: Homo sapiens, PC-9/ER, read-out: IC50s
# Procedure: (§3) Each concentration of drug was tested in sextuplicates. […] Data were derived from at least two independent experiments. […]
# NCl-H1819 cells = assay: Flow cytometry (cell cycle, Annexin V); format: cell-based; conditions: TTKi sensitive NCl-H1819 cells
# Procedure: as §1, §2
# EBC-1 = assay: Cell viability (MTT) assay; format: cell-based; conditions: Homo sapiens, EBC-1, origin LS, Td 42 h, drug for 2-3 doubling times
# Procedure: as §3
# NCI-H1819 = assay: Cell viability (MTT) assay; format: cell-based; conditions: NCI-H1819, origin LA, Td 51 h, drug for 2-3 doubling times
# Procedure: as §3
# MDA-MB-231 = assay: Cell viability (MTT) assay; format: cell-based; conditions: Homo sapiens, MDA-MB-231, origin Breast, Td 25 h, drug for 2-3 doubling times
# Procedure: as §3
# DU-145 = assay: Cell viability (MTT) assay; format: cell-based; conditions: Homo sapiens, DU-145, origin Pr, Td 30 h, drug for 2-3 doubling times
# Procedure: as §3
# SK-MES-1 = assay: Cell viability (MTT) assay; format: cell-based; conditions: Homo sapiens, SK-MES-1, origin LS, Td 50 h, drug for 2-3 doubling times
# Procedure: as §3
# NCI-H1975 = assay: Cell viability (MTT) assay; format: cell-based; conditions: Homo sapiens, NCI-H1975, origin LA, Td 39 h, drug for 2-3 doubling times
# Procedure: as §3
# SNU-C1 = assay: Cell viability (MTT) assay; format: cell-based; conditions: Homo sapiens, SNU-C1, origin Colon, Td 31 h, drug for 2-3 doubling times
# Procedure: as §3
# NCI-H3122 = assay: Cell viability (MTT) assay; format: cell-based; conditions: Homo sapiens, NCI-H3122, origin LA, Td 49 h, drug for 2-3 doubling times
# Procedure: as §3
# FADU = assay: Cell viability (MTT) assay; format: cell-based; conditions: Homo sapiens, origin HNSCC, Td 30 h, drug for 2-3 doubling times
# Procedure: as §3
# A549 = assay: Cell viability (MTT) assay; format: cell-based; conditions: Homo sapiens, A549, origin LA, Td 22 h, drug for 2-3 doubling times
# Procedure: as §3
# LC-2/ad = assay: Cell viability (MTT) assay; format: cell-based; conditions: Homo sapiens, origin LA, Td 58 h, drug for 2-3 doubling times
# Procedure: as §3
# MIA-PaCa-2 = assay: Cell viability (MTT) assay; format: cell-based; conditions: Homo sapiens, MIA-PaCa-2, origin Pancreas, Td 26 h, drug for 2-3 doubling times
# Procedure: as §3
# RT-112 = assay: Cell viability (MTT) assay; format: cell-based; conditions: Homo sapiens, RT-112, origin UB, Td 24 h, drug for 2-3 doubling times
# Procedure: as §3
# MDA-MB-468 = assay: Cell viability (MTT) assay; format: cell-based; conditions: Homo sapiens, MDA-MB-468, origin Breast, Td 35 h, drug for 2-3 doubling times
# Procedure: as §3
# HCC78 = assay: Cell viability (MTT) assay; format: cell-based; conditions: Homo sapiens, HCC78, origin LA, Td 38 h, drug for 2-3 doubling times
# Procedure: as §3
# HCC366 = assay: Cell viability (MTT) assay; format: cell-based; conditions: HCC366, origin LA, Td 65 h, drug for 2-3 doubling times
# Procedure: as §3
# NCI-H23 = assay: Cell viability (MTT) assay; format: cell-based; conditions: Homo sapiens, NCI-H23, origin LA, Td 38 h, drug for 2-3 doubling times
# Procedure: as §3
# WM793 = assay: Cell viability (MTT) assay; format: cell-based; conditions: Homo sapiens, WM793, origin Melan., Td 48 h, drug for 2-3 doubling times
# Procedure: as §3
# NCI-H2228 = assay: Cell viability (MTT) assay; format: cell-based; conditions: Homo sapiens, NCI-H2228, origin LA, Td 96 h, drug for 2-3 doubling times
# Procedure: as §3
# T98G = assay: Cell viability (MTT) assay; format: cell-based; conditions: Homo sapiens, origin GB, Td 22 h, drug for 2-3 doubling times
# Procedure: as §3
# SK-OV-3 = assay: Cell viability (MTT) assay; format: cell-based; conditions: Homo sapiens, SK-OV-3, origin Ovarian, Td 48 h, drug for 2-3 doubling times
# Procedure: as §3
# [1] = system: EGFR TKI-resistant clones derived from the PC9 cell line and from 11-18 cells; assay: Dose-response (cell viability) in EGFR TKI-resistant clones; format: cell-based; conditions: Homo sapiens
# Source text: All parental cell lines used in the study were purchased from the ATCC or other cell banks, with the exception of PC9 and 11-18. Parental PC9 cells were provided by F. Hoffman-La Roche Ltd (Basel, Switzerland) with the authorization of Dr. Mayumi Ono (Kyushu University, Fukuoka, Japan); while parental 11-18 cells were kindly provided by Dr. Mayumi Ono. Resistant cells were derived by exposing parental cells to EGFR TKIs, as described in [Bertran-Alamillo et al., (2019) AURKB as a target in non-small cell lung cancer with acquired resistance to anti-EGFR therapy. Nat Commun 10, 1812, and Jacobsen K, et al., (2017) Convergent Akt activation drives acquired EGFR inhibitor resistance in lung cancer. […] All tumor cells were grown in a humidified atmosphere with 5% CO2 at 37°C in RPMI 1640 + 10% fetal bovine serum (FBS), 50 µg/mL penicillin-streptomycin and 2 mM L-Glutamine. Cell lines were routinely tested for mycoplasma contamination and authenticated by analyzing >20 polymorphisms using a 30-gene panel NGS.
# as §3
smiles,measurement,setting,value
COc1ccc(Oc2cc(NCCC(F)(F)F)c3ncc(-c4ccc(C(=O)NC5CC5)c(C)c4)n3n2)c(F)c1F [BAY1217389],effect after G2/M arrest (flow cytometry),PC9-ER and PC-GR4 clones; resistant clones,extensive polyploidy
same,effect after G2/M arrest (flow cytometry),PC9-ER and PC-GR4 clones; sensitive clones,cell death
same,IC50,PC9-ER,> 10000 nM
same,cell death (Annexin V),NCl-H1819 cells,extensive induction of cell death
same,cell cycle effect (flow cytometry),NCl-H1819 cells; 50 nM,G2/M arrest
same,IC50,EBC-1,4.6 ± 0.6 nM
same,IC50,NCI-H1819,2.6 ± 0.3 nM
same,IC50,MDA-MB-231,> 1000 nM
same,IC50,DU-145,> 1000 nM
same,IC50,SK-MES-1,> 1000 nM
same,IC50,NCI-H1975,> 1000 nM
same,IC50,SNU-C1,> 1000 nM
same,IC50,NCI-H3122,7.2 ± 0.5 nM
same,IC50,FADU,> 1000 nM
same,IC50,A549,> 1000 nM
same,IC50,LC-2/ad,3.6 ± 0.3 nM
same,IC50,MIA-PaCa-2,> 1000 nM
same,IC50,RT-112,3.8 ± 0.3 nM
same,IC50,MDA-MB-468,4.1 ± 0.3 nM
same,IC50,HCC78,> 1000 nM
same,IC50,HCC366,> 1000 nM
same,IC50,NCI-H23,> 1000 nM
same,IC50,WM793,> 1000 nM
same,IC50,NCI-H2228,> 1000 nM
same,IC50,T98G,> 1000 nM
same,IC50,SK-OV-3,> 1000 nM
same,IC50,"[1]; PC-9, six clones sensitive to the TTKi",< 1 nM
same,IC50,"[1]; PC-9, twelve TTKi resistant clones",> 200 nM
